“Also recorded” adds a separate entry of the source.
Tested on: panel of up to 42 human chemokines
Assay: Phage-display next generation sequencing screen of overlapping hexadecapeptide libraries, chemokines displayed on streptavidin beads;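 note: chemokine listed when log2 fold enrichment exceeds 5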
Type: binding
Summary of the method: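 Phage-display libraries of 55662 overlapping hexadecapeptides from tick and viral chemokine-binding proteins, human chemokines and chemokine receptors screened against up to 42 human chemokines, with hits found by next-generation sequencing. Peptides mapped to parent-protein position with log2 fold enrichment; regions of interest where cumulative residue log2 E exceeds the 95% upper CI of the protein median.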

[1] = log2E greater than 5, chemokines named by first part of UniProt Entry Name
[2] = log2E greater than 5, chemokines named by first part of UniProt Entry Name, peptides binding complement C5a (control) excluded
[3] = log2E greater than 5, chemokines named by first part of UniProt entry name, C5a (control) binders excluded

Row | Substance | Chemokines Bound [1] | Chemokines Bound [2] | also measured
1 | CR23002 (TIWLVGFLLALPEILF) | CCL17, CCL18, and CCL19, CCL20, and CCL25, CCL28, and X3CL1, SDF1, and CXL13, CXL14, and IL8 | – | –
2 | CR5021 (FFSGMLLLLSISIDRY) | CCL18, CCL19,; also recorded: CCL20, CCL28 | – | –
3 | CR8339 (HRTVKLIFAIVVAYFL) | – | CCL28, X3CL1,; also recorded: CXL11, SDF1,; also recorded: CXL14 | –
4 | CR5518 (FLGLMASVWTHLGMAL) | CCL2, CXL10,; also recorded: CXL11 | – | –
5 | CR7854 (GWVFIFSSIQLATVVF) | – | CCL1, CCL15, and CCL17, CCL19, and CCL20, CCL22, and CCL28, X3CL1, and CXL10, CXL11, and SDF1, CXL13, and IL8 | –
6 | CR25375 (VLVIGSLVARWLLGIQ) | CCL18, CCL19,; also recorded: CCL20 | – | –
7 | CR9282 (ILAFFAAWLPYYIGIS) | – | CCL11, CCL18,; also recorded: X3CL1, CXL10,; also recorded: CXL11, CXL13 | –
8 | CR14365 (LSLSISLLAEVLMFLF) | – | – | Chemokines Bound [3]: CCL11, CCL19,; also recorded: CCL28, SDF1,; also recorded: CXL13, IL8
9 | CR3146 (DFLSKLLNMIFSISLY) | CCL17, CCL18,; also recorded: CCL19, CCL2,; also recorded: CCL20, CXL14 | – | –
10 | CR1923 (ATFKILISIVWGVMPV) | – | – | Chemokines Bound [3]: CCL18, CCL28,; also recorded: X3CL1, CXL10,; also recorded: CXL11, SDF1,; also recorded: CXL13, IL8
11 | CR2028 (ATSWVVIFWILAALMG) | – | – | Chemokines Bound [3]: CCL17, CCL18,; also recorded: CCL19, CCL20,; also recorded: CCL28, SDF1,; also recorded: CXL13, CXL14
12 | VP988 (CIILLVYVYATFATKG) | – | CCL1, CCL8,; also recorded: X3CL1, CXL10,; also recorded: CXL11 | –
13 | CR14976 (LVTMAVWVASILSSIL) | – | – | Chemokines Bound [3]: CCL2, SDF1,; also recorded: CXL13
14 | CR7344 (GMGPGPWMNILWAWFI) | – | CCL1, CCL11,; also recorded: CCL17, CCL18,; also recorded: CCL19, CCL2,; also recorded: CCL20, CCL22,; also recorded: CCL25, CCL8,; also recorded: X3CL1, CXL10,; also recorded: CXL11, SDF1,; also recorded: CXL14, IL8 | –
15 | VP7819 (RLEELYLTVASMFERL) | – | CCL1, CCL11,; also recorded: CCL17, CCL19,; also recorded: CCL2, CCL22,; also recorded: CCL28, CXL10 | –
16 | CR19826 (RVTLTSLAVWGLSLLF) | – | – | Chemokines Bound [3]: CCL17, CCL2,; also recorded: X3CL1, CXL14
17 | CR23950 (TVLATFKILICIVWGV) | CCL18, CCL19,; also recorded: CCL20, CCL25,; also recorded: SDF1, IL8 | – | –
18 | CR9291 (ILALVGNTLALWLFIR) | – | CCL2, CCL22,; also recorded: CCL25, IL8 | –
19 | CR2291 (AWFLPIMYSIISFVGL) | CCL1, CCL11, and IL8 | – | –
20 | CR9515: chemokine binding peptide of Table 5A used in FIG. 5 combinations (ILYQFELFGFTLIFFK) | – | CCL18, CCL19,; also recorded: CXL10, CXL14 | –

Row | Substance | Chemokines Bound [1] | Chemokines Bound [2] | also measured
21 | CR6604 (FYVAMFASLCFITEIA) | – | CXL10, CXL11, and SDF1, CXL13, and IL8 | –
22 | CR5246 (FIGIKIVYSFLWGIFP) | CCL20, CCL22,; also recorded: X3CL1, CXL10,; also recorded: CXL11 | – | –
23 | CR13324 (LLMLGLELLFGFFIPL) | – | – | Chemokines Bound [3]: CCL1, CCL11,; also recorded: CCL17, CCL18,; also recorded: CCL2, CCL20,; also recorded: CCL22, CCL28,; also recorded: CXL10, CXL11,; also recorded: SDF1, CXL14
24 | CR23880 (TTVILILAFFASWLPY) | CCL1, CCL18,; also recorded: CCL20, CCL25,; also recorded: CCL28, SDF1,; also recorded: CXL14 | – | –
25 | CR23943 (TVITFALYVGQFLAYV) | CCL2, CCL20,; also recorded: CCL22, X3CL1,; also recorded: CXL10, CXL11,; also recorded: SDF1, CXL13 | – | –
26 | CR7815 (GVVTSVITWVVAVFAS) | – | CCL1, CCL15,; also recorded: CCL2, CCL20,; also recorded: CCL22, CCL25,; also recorded: CCL28, CCL8,; also recorded: CXL10, CXL13 | –
27 | CR15670 (MMTWFYAFFYSTVQRA) | – | – | Chemokines Bound [3]: CCL18, CCL2, and CCL20, CCL25, and CCL28, CCL8, and X3CL1, CXL13, and IL8
28 | CR6605 (FYVAMFASLSFITEIA) | – | CXL10, CXL11, and IL8 | –
29 | CR20557 (SGYDMWLMLVYSVMIP) | – | – | Chemokines Bound [3]: CCL1, CCL15,; also recorded: CCL25
30 | CR26817 (WVLGDFLCKLLNMIFS) | CCL1, CCL17, and CCL18, CCL20, and CCL28, X3CL1, and CXL10, CXL11, and CXL13, CXL14, and IL8 | – | –
31 | CR5236 (FIFVIGMIANSVVVWV) | CCL19, CCL28,; also recorded: CXL11, SDF1,; also recorded: CXL13, IL8 | – | –
32 | CR26667 (WNNFHTIMRNILGLVL) | CCL17, CCL18,; also recorded: CXL14 | – | –
33 | CR6611 (FYVITLFASDFVLMWC) | – | CCL22, CCL25,; also recorded: X3CL1, CXL13 | –
34 | VP5438 (LIKAAILLLAGGLAES) | – | CCL17, CCL20,; also recorded: CCL25, CCL28,; also recorded: CCL5, CXL10 | –
35 | VP3426 (GSMMLSLLIAGMSLML) | – | CCL2, CCL5, and X3CL1, CXL10, and IL8 | –
36 | CR2301 (AWLPYYIGISIDSFIL) | CCL17, CCL19,; also recorded: CCL20 | – | –
37 | CR25001 (VITWLVAVFASVPGII) | CCL1, CCL19,; also recorded: CCL2, CXL11,; also recorded: CXL14 | – | –
38 | CR9141 (IIIWALAILASMPGLY) | – | CCL20, CCL28,; also recorded: CXL11, SDF1 | –
39 | CR12037 (LENMLFASFYLLDFIL) | – | – | Chemokines Bound [3]: CCL22, CXL10,; also recorded: CXL11, SDF1,; also recorded: CXL13, IL8

— patent publication US20260234188A1, “CHEMOKINE-BINDING PEPTIDES” (Oxford University Innovation Limited, priority 2022, published 2026)
